Results reported in patent publication US9586951B2 (FUJIFILM Corporation, priority 2013, dated 2017).

Molecular target: T1, ATM (Homo sapiens, UniProt Q13315)
T1 construct: detecting phosphorylation of Chk2 in a human non-small cell lung cancer cell line NCI-H460 (ATCC company); host or cells: NCI-H460 human non-small cell lung cancer cells
Test: ATM inhibition test (phosphorylation of Chk2 generated by ionizing radiation, AlphaScreen SureFire)
Type: cell-based
Conditions: phosphorylated Chk2 in NCI-H460 cells, ionizing radiation 8Gy, 1 hour after test compound treatment; read-out: ATM inhibitory activity
In short: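 NCI-H460 cells treated with compound for 1 hour, then irradiated with 8Gy and incubated 1 hour at 37° C. Phospho-Chk2 measured by AlphaScreen SureFire. Inhibition ratio calculated relative to untreated irradiated and non-irradiated wells.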

T1 sequence (Q13315 whole entry): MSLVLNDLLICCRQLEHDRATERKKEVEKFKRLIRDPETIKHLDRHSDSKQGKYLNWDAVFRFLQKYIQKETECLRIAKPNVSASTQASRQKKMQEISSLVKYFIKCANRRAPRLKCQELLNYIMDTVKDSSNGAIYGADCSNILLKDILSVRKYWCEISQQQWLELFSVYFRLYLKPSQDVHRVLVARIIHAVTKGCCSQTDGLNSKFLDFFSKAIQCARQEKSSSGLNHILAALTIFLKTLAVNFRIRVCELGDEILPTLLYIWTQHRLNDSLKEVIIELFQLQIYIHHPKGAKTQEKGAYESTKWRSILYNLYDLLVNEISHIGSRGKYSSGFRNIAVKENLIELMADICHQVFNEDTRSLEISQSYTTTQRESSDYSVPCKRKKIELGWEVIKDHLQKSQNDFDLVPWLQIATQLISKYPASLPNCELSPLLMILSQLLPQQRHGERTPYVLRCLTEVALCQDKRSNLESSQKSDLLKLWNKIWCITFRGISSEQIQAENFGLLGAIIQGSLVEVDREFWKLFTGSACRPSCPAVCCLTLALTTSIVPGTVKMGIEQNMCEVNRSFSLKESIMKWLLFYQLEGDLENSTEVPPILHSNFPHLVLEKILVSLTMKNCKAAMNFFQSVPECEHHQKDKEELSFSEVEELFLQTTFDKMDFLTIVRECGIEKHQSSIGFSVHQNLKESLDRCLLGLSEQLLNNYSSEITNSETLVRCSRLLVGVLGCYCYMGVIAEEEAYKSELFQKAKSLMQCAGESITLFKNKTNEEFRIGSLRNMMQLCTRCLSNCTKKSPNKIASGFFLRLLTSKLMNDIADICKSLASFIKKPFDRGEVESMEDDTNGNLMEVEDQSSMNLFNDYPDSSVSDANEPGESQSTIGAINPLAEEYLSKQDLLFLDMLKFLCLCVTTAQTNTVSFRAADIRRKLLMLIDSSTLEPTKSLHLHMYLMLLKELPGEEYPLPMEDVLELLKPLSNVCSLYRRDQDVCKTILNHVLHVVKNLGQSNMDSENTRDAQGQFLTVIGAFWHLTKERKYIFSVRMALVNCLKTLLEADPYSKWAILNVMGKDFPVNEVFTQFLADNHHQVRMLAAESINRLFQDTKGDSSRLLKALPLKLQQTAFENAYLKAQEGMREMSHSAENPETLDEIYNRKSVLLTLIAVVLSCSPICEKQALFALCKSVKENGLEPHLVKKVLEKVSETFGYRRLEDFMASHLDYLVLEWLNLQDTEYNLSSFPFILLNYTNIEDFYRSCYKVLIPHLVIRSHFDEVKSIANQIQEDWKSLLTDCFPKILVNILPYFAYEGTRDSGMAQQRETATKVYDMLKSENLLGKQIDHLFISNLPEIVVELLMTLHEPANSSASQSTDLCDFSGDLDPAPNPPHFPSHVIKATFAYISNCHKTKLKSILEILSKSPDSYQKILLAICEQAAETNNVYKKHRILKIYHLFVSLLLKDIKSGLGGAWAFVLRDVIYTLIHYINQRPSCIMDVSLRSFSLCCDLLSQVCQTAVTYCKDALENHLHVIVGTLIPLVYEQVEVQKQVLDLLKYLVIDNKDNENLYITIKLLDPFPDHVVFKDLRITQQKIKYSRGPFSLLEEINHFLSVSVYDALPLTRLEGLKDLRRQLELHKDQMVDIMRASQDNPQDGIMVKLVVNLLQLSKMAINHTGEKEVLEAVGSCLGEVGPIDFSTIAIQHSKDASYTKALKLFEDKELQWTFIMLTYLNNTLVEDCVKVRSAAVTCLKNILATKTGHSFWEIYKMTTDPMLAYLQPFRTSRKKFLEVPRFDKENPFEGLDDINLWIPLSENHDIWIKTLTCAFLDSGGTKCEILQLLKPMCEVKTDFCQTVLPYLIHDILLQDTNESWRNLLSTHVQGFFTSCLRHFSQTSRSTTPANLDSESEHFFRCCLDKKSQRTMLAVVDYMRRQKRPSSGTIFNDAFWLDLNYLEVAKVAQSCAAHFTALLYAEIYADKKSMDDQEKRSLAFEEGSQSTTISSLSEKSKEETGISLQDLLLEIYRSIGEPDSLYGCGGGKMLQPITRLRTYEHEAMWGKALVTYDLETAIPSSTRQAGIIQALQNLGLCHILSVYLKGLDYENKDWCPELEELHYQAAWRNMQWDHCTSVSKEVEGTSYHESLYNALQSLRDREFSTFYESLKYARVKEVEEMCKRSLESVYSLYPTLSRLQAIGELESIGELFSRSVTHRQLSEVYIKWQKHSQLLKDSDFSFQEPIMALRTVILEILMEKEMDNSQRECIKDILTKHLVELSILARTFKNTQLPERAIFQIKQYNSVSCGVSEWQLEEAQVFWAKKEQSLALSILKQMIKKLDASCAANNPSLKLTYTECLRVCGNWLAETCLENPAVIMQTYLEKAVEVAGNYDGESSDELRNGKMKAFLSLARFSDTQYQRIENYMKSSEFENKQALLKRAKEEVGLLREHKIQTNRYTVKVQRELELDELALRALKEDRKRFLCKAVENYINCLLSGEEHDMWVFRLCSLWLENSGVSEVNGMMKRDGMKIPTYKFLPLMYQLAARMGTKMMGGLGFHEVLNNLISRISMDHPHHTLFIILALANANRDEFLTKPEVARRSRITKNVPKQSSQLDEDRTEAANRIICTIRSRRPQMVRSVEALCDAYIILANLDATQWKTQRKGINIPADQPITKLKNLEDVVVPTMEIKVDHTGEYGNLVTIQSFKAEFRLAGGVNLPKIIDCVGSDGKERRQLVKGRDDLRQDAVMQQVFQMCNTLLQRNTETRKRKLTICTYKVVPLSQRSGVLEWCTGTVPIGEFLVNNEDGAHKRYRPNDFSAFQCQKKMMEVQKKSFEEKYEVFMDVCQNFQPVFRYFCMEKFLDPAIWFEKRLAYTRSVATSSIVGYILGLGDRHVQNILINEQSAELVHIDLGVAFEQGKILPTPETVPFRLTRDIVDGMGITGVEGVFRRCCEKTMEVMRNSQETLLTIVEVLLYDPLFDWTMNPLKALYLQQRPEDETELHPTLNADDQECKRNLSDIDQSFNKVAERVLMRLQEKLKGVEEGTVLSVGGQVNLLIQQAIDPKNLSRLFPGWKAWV

Row | Compound | IC50 [nM]
1 | CC(Nc1ccc2c(c1)Cc1cccc(-c3cc(N4CCOCC4)cc(=O)[nH]3)c1O2)c1cncc(Cl)c1 (stereo not drawn) [Example 2-14-27, 6-(7-((1-(5-Chloropyridin-3-yl)ethyl)amino)-9H-xanthen-4-yl)-4-morpholino pyridin-2(1H)-one] | 100 to 500
2 | O=c1cc(N2CCOCC2)cc(-c2cccc3c2Oc2ccc(NCCc4cccnc4)cc2C3)[nH]1 [Example 2-12, 4-morpholino-6-(7-((2-(pyridin-3-yl)ethyl)amino)-9H-xanthen-4-yl)pyridin-2(1H)-one] | 100 to 500
3 | CC(C)(O)CN1CCC(Nc2ccc3c(c2)Sc2cccc(-c4cc(N5CCOCC5)cc(=O)[nH]4)c2S3)CC1 [Example 1-29-1, 6-(7-((1-(2-hydroxy-2-methylpropyl)piperidin-4-yl)amino)thianthren-1-yl)-4-morpholinopyridin-2(1H)-one] | 100 to 500
4 | CC(CN1CCOCC1)Nc1ccc2c(c1)Sc1cccc(-c3cc(N4CCOCC4)cc(=O)[nH]3)c1S2 (single isomer, unassigned) [Example 1-13-2-3, 4-morpholino-6-(7-((1-morpholinopropan-2-yl)amino)thianthren-1-yl)pyridin-2(1H)-one] | 100 to 500
5 | Cc1ccnc(C(CN2CCOCC2)Nc2ccc3c(c2)Sc2cccc(-c4cc(N5CCOCC5)cc(=O)[nH]4)c2S3)n1 (stereo not drawn) [Example 1-13-18, 6-(7-((1-(4-Methylpyrimidin-2-yl)-2-morpholinoethyl)amino)thianthren-1-yl)-4-morpholinopyridin-2(1H)-one] | 500 to 2000
6 | CCC(C(=O)Nc1ccc2c(c1)Sc1cccc(-c3cc(N4CCOCC4)cc(=O)[nH]3)c1S2)N1CCOCC1 (stereo not drawn) [Example 1-6-2, 2-Morpholino-N-(6-(4-morpholino-6-oxo-1,6-dihydropyridin-2-yl)thianthren-2-yl)butanamide] | 100 to 500
7 | CCC(Nc1ccc2c(c1)Sc1cccc(-c3cc(N4CCOCC4)cc(=O)[nH]3)c1O2)c1cncc(OC)c1 (stereo not drawn) [Example 4-4-27, 6-(8-((1-(5-Methoxypyridin-3-yl)propyl)amino)phenoxathiin-4-yl)-4-morpholino pyridin-2(1 H)-one] | 100 to 500
8 | O=c1cc(N2CCOCC2)cc(-c2cccc3c2Sc2ccc(NC(CF)CN4CCOCC4)cc2S3)[nH]1 (single isomer, unassigned) [Example 1-41-1-3, 6-(7-((1-fluoro-3-morpholinopropan-2-yl)amino)thianthren-1-yl)-4-morpholinopyridin-2(1H)-one] | 100 to 500
9 | CN1CCN(C(=O)CNc2ccc3c(c2)Sc2cccc(-c4cc(N5CCOCC5)cc(=O)[nH]4)c2S3)CC1 [Example 1-18-3] | 500 to 2000
10 | COc1cccc(C(C)Nc2ccc3c(c2)Cc2cccc(-c4cc(N5CCOCC5)cc(=O)[nH]4)c2O3)n1 (stereo not drawn) [Example 2-14-30, 6-(7-((1-(6-Methoxypyridin-2-yl)ethyl)amino)-9H-xanthen-4-yl)-4-morpholine pyridin-2(1H)-one] | 100 to 500
11 | O=c1cc(N2CCOCC2)cc(-c2cccc3c2Sc2ccc(NC(CN4CCCCC4)CN4CCOCC4)cc2S3)[nH]1 (stereo not drawn) [Example 1-39, 4-morpholino-6-(7-((1-morpholino-3-(piperidin-1-yl)propan-2-yl)amino)thianthren-1-yl)pyridin-2(1H)-one] | 100 to 500
12 | O=c1cc(N2CCOCC2)cc(-c2cccc3c2Oc2ccc(NC4CCN(CCc5ccccc5)CC4)cc2C3)[nH]1 [Example 2-28-29, 4-Morpholino-6-(7-((1-phenethylpiperidin-4-yl)amino)-9H-xanthen-4-yl) pyridin-2(1H)-one] | 100 to 500
13 | Cc1cncc(C(C)Nc2ccc3c(c2)Cc2cccc(-c4cc(N5CCOCC5)cc(=O)[nH]4)c2O3)c1 (stereo not drawn) [Example 2-14-22, 6-(7-((1-(5-Methylpyridin-3-yl)ethyl)amino)-9H-xanthen-4-yl)-4-morpholino pyridin-2(1H)-one] | 100 to 500
14 | COc1ccc(CCN2CCC(Nc3ccc4c(c3)Cc3ccnc(-c5cc(N6CCOCC6)cc(=O)[nH]5)c3O4)CC2)cc1 [Example 2-41-5, 6-(7-((1-(4-Methoxyphenethyl)piperidin-4-yl)amino)-5H-chromeno[2,3-c]pyridin-1-yl)-4-morpholino pyridin-2(1H)-one] | 100 to 500
15 | CC(Nc1ccc2c(c1)Cc1cccc(-c3cc(N4CCOCC4)cc(=O)[nH]3)c1O2)c1cccc(F)n1 (single isomer, unassigned) [Example 2-14-87-2, 6-(7-((1-(6-fluoropyridin-2-yl)ethyl)amino)-9H-xanthen-4-yl)-4-morpholinopyridin-2(1H)-one] | 100 to 500
16 | O=c1cc(N2CCOCC2)cc(-c2ccc(F)c3c2Oc2ccc(NCc4cc(C5CC5)ccn4)cc2C3)[nH]1 [Example 2-44-2, 6-(7-(((4-Cyclopropylpyridin-2-yl)methyl)amino)-1-fluoro-9H-xanthen-4-yl)-4-morpholinopyridin-2(1H)-one] | 100 to 500
17 | CC(CN1CCN(C(C)C)CC1)Nc1ccc2c(c1)Sc1cccc(-c3cc(N4CCOCC4)cc(=O)[nH]3)c1S2 (stereo not drawn) [Example 1-13-14, 6-(7-((1-(4-Isopropylpiperazin-1-yl)propan-2-yl)amino)thianthren-1-yl)-4-morpholino pyridin-2(1H)-one] | 100 to 500
18 | CC(Nc1ccc2c(c1)Sc1cccc(-c3cc(N4CCOCC4)cc(=O)[nH]3)c1S2)c1cc(C#N)ncn1 (single isomer, unassigned) [Example 1-12-146-2, 6-(1-((6-(4-morpholino-6-oxo-1,6-dihydropyridin-2-yl)thianthren-2-yl)amino)ethyl)pyrimidine-4-carbonitrile] | 100 to 500
19 | O=c1cc(N2CCOCC2)cc(-c2cccc3c2Oc2ccc(NC4CCN(c5cccnc5)CC4)cc2C3)[nH]1 [Example 2-2-28, 4-Morpholino-6-(7-((l-(pyridin-3-yl)piperidin-4-yl)amino)-9H-xanthen-4-yl) pyridin-2(1H)-one] | 100 to 500
20 | COCC(CN1CCOCC1)Nc1ccc2c(c1)Sc1cccc(-c3cc(N4CCOCC4)cc(=O)[nH]3)c1S2 (single isomer, unassigned) [Example 1-17-1-3, 6-(7-((1-methoxy-3-morpholinopropan-2-yl)amino)thianthren-1-yl)-4-morpholinopyridin-2(1H)-one] | 100 to 500
21 | CN(C)c1ncc(CNc2ccc3c(c2)Sc2cccc(-c4cc(N5CCOCC5)cc(=O)[nH]4)c2O3)cn1 [Example 4-4-5, 6-(8-(((2-(Dimethylamino)pyrimidin-5-yl)methyl)amino)phenoxathiin-4-yl)-4-morpholino pyridin-2 (1H)-one] | 100 to 500
22 | CCC(CNc1ccc2c(c1)Sc1cccc(-c3cc(N4CCOCC4)cc(=O)[nH]3)c1S2)N1CCOCC1 (stereo not drawn) [Example 1-9-1, 4-morpholino-6-(7-((2-morpholinobutyl)amino)thianthren-1-yl)pyridin-2(1H)-one] | 100 to 500
23 | O=c1cc(N2CCOCC2)cc(-c2cccc3c2Sc2ccc(NCc4cncc(-c5cccnc5)c4)cc2S3)[nH]1 [Example 1-12-21, 6-(7-(([3,3′-Bipyridin]-5-ylmethyl)amino)thianthren-1-yl)-4-morpholino pyridin-2 (1H)-one] | < 100
24 | Cc1cccc(CNc2ccc3c(c2)Cc2cccc(-c4cc(N5CCOCC5)cc(=O)[nH]4)c2O3)n1 [Example 2-2-24, 6-(7-(((6-Methylpyridin-2-yl)methyl)amino)-9H-xanthen-4-yl)-4-morpholino pyridin-2(1H)-one] | 100 to 500
